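Step 1: Grow cells in 96-well plates. Step 2: Expose to compound for 48 hours at 5 concentrations. Step 3: Interpolate endpoints linearly; if unreached, use highest concentration. GI50 = concentration required for 50% inhibition of growth.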 Calls of active or inactive are those of the source. Cut-off read from the data, not from the text of the source: active = GI50 up to about 1.1 µM and inactive = higher.
Legend:
Experiment in all cases: inhibition of tumour cell growth, NCI panel, 48 h
[1] = system: MDA-N
[2] = system: DU-145
[3] = system: UACC-62
[4] = system: NCI/ADR-RES
[5] = system: SK-MEL-2
[6] = system: T47D
[7] = system: Malme-3M
[8] = system: HOP-92
[9] = system: M14
[10] = system: RXF 393
[11] = system: NCI-H522
[12] = system: SR
[13] = system: SK-MEL-28
[14] = system: OVCAR-5
[15] = system: HCC 2998
[16] = system: IGROV-1
[17] = system: HT-29
[18] = system: CCRF-CEM
[19] = system: NCI-H460
[20] = system: ACHN
[21] = system: SF-295
[22] = system: NCI-H23
[23] = system: UO-31
[24] = system: CAKI-1
[25] = system: SK-OV-3
[26] = system: 786-0
[27] = system: UACC-257
[28] = system: MDA-MB-231
[29] = system: BT-549
[30] = system: SN12C
[31] = system: MCF7
[32] = system: COLO 205
[33] = system: OVCAR-4
[34] = system: NCI-H226
[35] = system: K562
[36] = system: SK-MEL-5
[37] = system: SNB-75
[38] = system: EKVX
[39] = system: SF-539
[40] = system: A498
[41] = system: HOP-62
[42] = system: MDA-MB-435
[43] = system: Hs-578T
[44] = system: RPMI-8226
[45] = system: SW-620
[46] = system: PC-3
[47] = system: MOLT-4
[48] = system: TK-10
[49] = system: HL-60
[50] = system: HCT-15
[51] = system: OVCAR-8
[52] = system: U-251
[53] = system: HCT-116
[54] = system: OVCAR-3
[55] = system: SF-268
[56] = system: A549
[57] = system: KM12

Cn1c(=O)c2sc3cc4c(cc3c2c2ccccc21)sc1c(=O)n(C)c2ccccc2c14
GI50 [1]: > 100 µM (inactive)
GI50 [2]: > 100 µM (inactive)
GI50 [3]: > 100 µM (inactive)
GI50 [4]: > 100 µM (inactive)
GI50 [5]: > 100 µM (inactive)
GI50 [6]: > 100 µM (inactive)
GI50 [7]: 81.7 µM (inactive)
GI50 [8]: 23.9 µM (inactive)
GI50 [9]: 88.1 µM (inactive)
GI50 [10]: 15.9 µM (inactive)
GI50 [11]: 34.2 µM (inactive)
GI50 [12]: 25.8 µM (inactive)
GI50 [13]: > 100 µM (inactive)
GI50 [14]: 57.3 µM (inactive)
GI50 [15]: > 100 µM (inactive)
GI50 [16]: 65.9 µM (inactive)
GI50 [17]: > 100 µM (inactive)
GI50 [18]: 40.1 µM (inactive)
GI50 [19]: 52.4 µM (inactive)
GI50 [20]: 19.2 µM (inactive)
GI50 [21]: 15.2 µM (inactive)
GI50 [22]: 45.7 µM (inactive)
GI50 [23]: 74.8 µM (inactive)
GI50 [24]: > 100 µM (inactive)
GI50 [25]: > 100 µM (inactive)
GI50 [26]: 31.8 µM (inactive)
GI50 [27]: > 100 µM (inactive)
GI50 [28]: 16.6 µM (inactive)
GI50 [29]: 19.8 µM (inactive)
GI50 [30]: > 100 µM (inactive)
GI50 [31]: > 100 µM (inactive)
GI50 [32]: > 100 µM (inactive)
GI50 [33]: > 100 µM (inactive)
GI50 [34]: > 100 µM (inactive)
GI50 [35]: > 10 µM (inactive)
GI50 [36]: > 100 µM (inactive)
GI50 [37]: 12.9 µM (inactive)
GI50 [38]: > 100 µM (inactive)
GI50 [39]: 76 µM (inactive)
GI50 [40]: > 100 µM (inactive)
GI50 [41]: 19.9 µM (inactive)
GI50 [42]: > 100 µM (inactive)
GI50 [43]: 43.4 µM (inactive)
GI50 [44]: > 100 µM (inactive)
GI50 [45]: > 100 µM (inactive)
GI50 [46]: > 100 µM (inactive)
GI50 [47]: 78.2 µM (inactive)
GI50 [48]: > 100 µM (inactive)
GI50 [49]: > 100 µM (inactive)
GI50 [50]: > 100 µM
GI50 [51]: 41.7 µM (inactive)
GI50 [52]: 19 µM (inactive)
GI50 [53]: 67.5 µM (inactive)
GI50 [54]: > 100 µM (inactive)
GI50 [55]: 59.7 µM (inactive)
GI50 [56]: 89.3 µM (inactive)
GI50 [57]: > 100 µM (inactive)
